Experimental data as given in patent US10035819B2, “PPAR agonists and methods of use thereof” (The Salk Institute for Biological Studies, priority 2014, dated 2018).
Values after ≈ are worked out from the molar mass of the structure shown. Where two headings read alike, the source gives them in different places.

Key:
[1] = Pharmacokinetics in male CD-1 mice (i.v. and p.o.); assay type: in vivo; details: for F: 10 mg/Kg p.o. vs 3 mg/Kg i.v.
Method: The oral bioavailability and serum half lives of PPARδ ligands were compared in mice. The pharmacokinetics of PPARδ ligands delivered orally (10 mg/kg p.o.) and intravenously (3 mg·kg i.v.) were determined by mass spectrometry.
In this example, the PK profile of several PPARδ agonists disclosed herein in male CD-1 mice or Wistar rats was determined. Similar methods can be used to analyze other compounds provided herein.
(quantity sufficient ie made up to a final volume of 100% with water). All compounds were separately administered to CD-1 mice at 3 mg/kg iv or 10 mg/kg po.
(§1) The concentration of the compound in plasma was determined, as illustrated in FIGS. 9A-9E.

[2] = test system: C57BL6J mice, freeze burn injury to the TA muscle; test: Acute pharmacological activation of PPARδ with oral GW501516, freeze burn injury to the TA muscle; assay type: in vivo
Method: A stainless steel 1 g weight (Mettler-Toledo) equilibrated to the temperature of dry ice was placed directly on the exposed TA for 10 seconds. Following the thermal injury, incision was closed using VetBond (3M). All injury procedures were performed on the left leg, and the right leg was used as control.
Sterile 1% w/v Evans Blue dye in PBS was intraperitoneally injected at 1% volume relative to the body mass of an animal. 7 hours after the injection, injured TA muscles were harvested and snap-frozen by isopentane quenching in liquid nitrogen. Frozen sections were cut in 10 μm thickness, fixed in ice-cold acetone, dipped in xylene and mounted with DPX. Proportion of the stained area over the total area was measured using ImageJ software.
50 mg/kg body weight of BrdU (Sigma) was injected intraperitoneally as solution of 10 mg/mL BrdU in saline. TA muscles were harvested at 7 days after injury and processed for paraffin sections as described above. BrdU incorporation was visualized using the BrdU Labeling and Detection Kit I (Roche) and BrdU+ nuclei were counted and represented as a proportion of total nuclei in a field.
Whole or partial tissues were homogenized by Polytron probe homogenizer in Trizol reagent (Invitrogen). Total RNA was extracted from the homogenates according to the manufacturer's protocol. 1 μg of DNase-treated total RNA was reverse transcribed using Superscript II Reverse Transcriptase (Invitrogen) according to the manufacturer's instructions. cDNAs were diluted 1/40 with ddH2O and used as templates in RT-QPCR reactions with SYBRGreenER qPCR SuperMix detection system (Invitrogen). Samples were prepared in technical triplicates and relative mRNA levels were calculated by using the standard curve methodology and normalized against GAPDH mRNA levels in the same samples.

FGF1a promoter = test: Luciferase reporter assay of the FGF1a promoter co-transfected with PPARδ; assay type: cell-based; details: with ligand
Text: Increased vasculature is one of the hallmarks of oxidative myofibers, which facilitates introduction of immune cells and also supports increased number of satellite cells.

[3] = Pharmacokinetics in male Wistar rats (i.v. and p.o.); assay type: in vivo
Method: In this example, the PK profile of several PPARδ agonists disclosed herein in male CD-1 mice or Wistar rats was determined. Similar methods can be used to analyze other compounds provided herein. […]
as §1

[4] = Solubility (kinetic, thermodynamic); assay type: physicochemical; details: for solubility kinetic: kinetic from dmso stock; for solubility thermodynamic: thermodynamic from solid
[5] = assay type: in vitro ADME
% Parent remained in HLM = assay type: in vitro ADME
[6] = CD-1 mice, 3 mg/Kg i.v., plasma
[7] = male, CD-1, mouse, plasma, iv, 3 mg/kg, CD-1 mice, 3 mg/Kg i.v., plasma, read-out: Vss
[8] = male, CD-1, mouse, plasma, iv, 3 mg/kg, CD-1 mice, 3 mg/Kg i.v., plasma, read-out: Vz
[9] = male, mouse, iv, CD-1 mice, 3 mg/Kg i.v., plasma
[10] = male, mouse, po, CD-1 mice, 10 mg/Kg p.o., plasma
[11] = rat, iv, male Wistar rats, 3 mg/Kg i.v., plasma
[12] = rat, po, male Wistar rats, 10 mg/Kg p.o., plasma

## Cc1cc(SCc2sc(-c3ccc(C(F)(F)F)cc3)nc2C)ccc1OCC(=O)O [GW501516]
[1]; [6]
  Kel: 0.11 h⁻¹
[1]; CD-1 mice
  F: 82.1%
[1]; male, CD-1, mouse, plasma, iv, 3 mg/kg
  clearance: 4.42 mL/min/kg
[1]; [7]
  Vd: 1.71 L/kg
[1]; [8]
  Vd: 2.46 L/kg
[1]; male, CD-1, mouse, plasma, iv, 3 mg/kg, read-out: Beta T1/2 (converted)
  half-life: 6.44 h
[1]; male, CD-1, mouse, plasma, po, 10 mg/kg, read-out: T1/2 (converted)
  half-life: 5.98 h
[1]; [9]
  AUC(0-inf): 11300 ng·h/mL
  C0: 5560 ng/mL
  MRT: 4.96 h
[1]; [10]
  AUC(0-inf): 31000 ng·h/mL
  Cmax: 3290 ng/mL
  Tmax: 2 h
[2]; 5 mg/kg orally, 4 days prior to and 5 days after freeze burn injury, 5 days after injury (vehicle 7.6%)
  Evans Blue dye uptake, stained proportion of muscle cross sectional area (CSA): 4.9%
[2]; 12 hours after injury, with and without ligand
  initial inflammatory responses: similar
[2]; 3 days post injury, TA muscle
  TNFα and macrophage marker F4/80 expression by QPCR: significant reduction
[2]; 5 days after the injury, vs vehicle
  reduction in damaged muscle fibers: 34.7%
[2]; 9 day treatment
  Notch1 and Hes1 expression by QPCR: increases
[2]; 9 day treatment, 5 mg/kg orally
  PPARδ target genes (PDK4, CPT1b, catalase) in the TA muscle by QPCR: Up-regulation
[2]; 9 days or 4 weeks of ligand treatment
  number of quiescent satellite cells: not significantly affected
[2]; BrdU injection at 48 hours after the injury
  proliferative cell number (BrdU): marked increase
FGF1a promoter
  FGF1a promoter luciferase reporter, PPRE-dependent: activation
[3]; male Wistar rats, 3 mg/Kg i.v., plasma
  Kel: 0.09 h⁻¹
[3]; male Wistar rats, 10 mg/Kg p.o. vs 3 mg/Kg i.v.
  F: ~100%
[3]; male, Wistar, rat, plasma, iv, 3 mg/kg
  clearance: 5.1 mL/min/kg
[3]; male, Wistar, rat, plasma, iv, 3 mg/kg, male Wistar rats, 3 mg/Kg i.v., plasma, read-out: Vss
  Vd: 1.99 L/kg
[3]; male, Wistar, rat, plasma, iv, 3 mg/kg, male Wistar rats, 3 mg/Kg i.v., plasma, read-out: Vz
  Vd: 3.58 L/kg
[3]; male, Wistar, rat, plasma, iv, 3 mg/kg, read-out: Beta T1/2 (converted)
  half-life: 8.07 h
[3]; male, Wistar, rat, plasma, po, 10 mg/kg, read-out: T1/2 (converted)
  half-life: 6.21 h
[3]; [11]
  AUC(0-inf): 9960 ng·h/mL
  C0: 5280 ng/mL
  MRT: 4.3 h
[3]; [12]
  AUC(0-inf): 35100 ng·h/mL
  Cmax: 6920 ng/mL
  Tmax: 2 h
[4]
  solubility kinetic: 195 µM (≈ 88.4 µg/mL)
  solubility thermodynamic: 246 µM (≈ 112 µg/mL)
[5]
  % Parent remained at 15 min, MLM: 93/76%
  % Parent remained at 60 min, MLM: 93/76%

## O=C(O)CCCCCOc1ccccc1CN(C(=O)c1ccc(-c2ccco2)cc1)C1CC1 [compound 12]
[1]; [6]
  Cl: 194.938 mL/min/kg
  Kel: 3.85 h⁻¹
[1]; CD-1 mice
  F: ~22%
[1]; [7]
  Vd: 1.58 L/kg
[1]; [8]
  Vd: 3.03 L/kg
[1]; [9]
  AUC(0-inf): 256 ng·h/mL
  C0: 1940 ng/mL
  MRT: 0.12 h
[1]; male, mouse, iv, CD-1 mice, 3 mg/Kg i.v., plasma, read-out: Beta T1/2 (converted)
  half-life: 0.18 h
[1]; [10]
  AUC(0-inf): 187 ng·h/mL
  Cmax: 129 ng/mL
  Tmax: 0.5 h
[1]; male, mouse, po, CD-1 mice, 10 mg/Kg p.o., plasma, read-out: T1/2 (converted)
  half-life: 2.6 h
[4]
  solubility kinetic: 6 µM (≈ 2.69 µg/mL)
  solubility thermodynamic: 253 µM (≈ 113 µg/mL)
% Parent remained in HLM; 15 min
  % Parent remained at 15 min, HLM: 92%
% Parent remained in HLM; 60 min
  % Parent remained at 60 min, HLM: 64%
[5]; MLM, 15 min
  % Parent remained at 15 min, MLM: 59%
[5]; MLM, 60 min
  % Parent remained at 60 min, MLM: 19%
